Assay results reported in patent US9499550B2 (BRISTOL-MYERS SQUIBB COMPANY, priority 2012, dated 2016).
Read-outs that look alike come from different tables or passages of the source.

What was measured:
[1] = system: HCV genotype 1b (Con1) replicon in HUH-7 cells; assay: HCV replicon luciferase reporter assay, genotype 1b; assay type: cell-based; settings: Hepatitis C virus, Huh-7, 72 h, HCV genotype 1b replicon luciferase, 3 days incubation, read-out: LE_1b (EC50, range)
Outline: (§1)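 Replicon inhibition for both genotypes was measured as Renilla luciferase signal (EnduRen, 7.5 μM final, 2 h) after 3-day, 37° C exposure of replicon-bearing HUH-7 cells in 4% FCS DMEM, 0.5% DMSO. The 1b construct carries S1179I; the 1a H77 construct carries P1496L and S2204I. Twenty-point, 3-fold dilutions were fitted four-parametrically for EC50, and CC50 was taken from multiplexed Cell Titer-Blue.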

[2] = system: HCV genotype 1a (H77 strain) replicon in HUH-7 cells; assay: HCV replicon luciferase reporter assay, genotype 1a; assay type: cell-based; settings: Hepatitis C virus, Huh-7, 72 h, HCV genotype 1a replicon luciferase, 3 days incubation, read-out: LE_1a (EC50, range)
Outline: as §1

Row | SMILES | EC50 [1] | EC50 [2] | EC50 ([1]; GETYPE1B) | EC50 ([2]; GETYPE1A)
1 | C=C1C=Cc2c(O[C@@H]3C[C@H]4C(=O)N[C@]5(C(=O)NS(=O)(=O)C6CC6)C[C@H]5/C=C\CC[C@@H](C)C[C@@H](CC)[C@H](NC(=O)OC(C)(C)C)C(=O)N4C3)ncc(OC)c2C1 [Compound 4007] | < 5.46 nM | < 5.46 nM | – | –
2 | COc1ccc2c(O[C@@H]3C[C@H]4C(=O)N[C@]5(C(=O)NS(=O)(=O)C6(C)CC6)C[C@H]5/C=C\CC[C@@H](C)C[C@@H](C)[C@H](NC(=O)OC(C)(C)C(F)(F)F)C(=O)N4C3)ncc(N3CCN(C)CC3)c2c1 [Compound 4013] | – | – | < 5.46 nM | < 5.46 nM
3 | COc1ccc2c(O[C@@H]3C[C@H]4C(=O)N[C@]5(C(=O)NS(=O)(=O)C6(F)CC6)C[C@H]5/C=C\CC[C@@H](C)C[C@@H](C)[C@H](NC(=O)C(C)(C)C)C(=O)N4C3)nccc2c1 [Compound 4015] | < 5.46 nM | < 5.46 nM | – | –
4 | COc1ccc2c(O[C@@H]3C[C@H]4C(=O)N[C@]5(C(=O)NS(=O)(=O)C6(F)CC6)C[C@H]5/C=C\CC[C@@H](C)C[C@@H](C)[C@H](NC(=O)OC(C)C)C(=O)N4C3)nccc2c1 [Compound 4016] | < 5.46 nM | < 5.46 nM | – | –
5 | CC(C)Oc1cnc(O[C@@H]2C[C@H]3C(=O)N[C@]4(C(=O)NS(=O)(=O)C5CC5)C[C@H]4/C=C\CC[C@@H](C)C[C@@H](C)[C@H](NC(=O)OC(C)(C)C(F)(F)F)C(=O)N3C2)c2cccc(Cl)c12 [Compound 4017] | < 5.46 nM | < 5.46 nM | – | –
6 | COc1ccc2c(O[C@@H]3C[C@H]4C(=O)N[C@]5(C(=O)NS(=O)(=O)C6(F)CC6)C[C@H]5/C=C\CC[C@@H](C)C[C@@H](C)[C@H](NC(=O)OCC(C)C)C(=O)N4C3)nccc2c1 [Compound 4018] | < 5.46 nM | < 5.46 nM | – | –
7 | COc1ccc2c(O[C@@H]3C[C@H]4C(=O)N[C@]5(C(=O)NS(=O)(=O)C6(F)CC6)C[C@H]5/C=C\CC[C@@H](C)C[C@@H](C)[C@H](NC(=O)OC5CCCC5)C(=O)N4C3)nccc2c1 [Compound 4019] | < 5.46 nM | < 5.46 nM | – | –
8 | COc1ccc2c(O[C@@H]3C[C@H]4C(=O)N[C@]5(C(=O)NS(=O)(=O)C6(F)CC6)C[C@H]5/C=C\CC[C@@H](C)C[C@@H](C)[C@H](NC(=O)O[C@H](C)C(F)(F)F)C(=O)N4C3)nccc2c1 [Compound 4020] | < 5.46 nM | < 5.46 nM | – | –
9 | COc1ccc2c(O[C@@H]3C[C@H]4C(=O)N[C@]5(C(=O)NS(=O)(=O)C6(F)CC6)C[C@H]5/C=C\CC[C@@H](C)C[C@@H](C)[C@H](NC(=O)OCC(C)(C)C)C(=O)N4C3)nccc2c1 [Compound 4022] | < 5.46 nM | < 5.46 nM | – | –
10 | COc1cc2ccnc(O[C@@H]3C[C@H]4C(=O)N[C@]5(C(=O)NS(=O)(=O)C6(F)CC6)C[C@H]5/C=C\CC[C@@H](C)C[C@@H](C)[C@H](NC(=O)OC(C)(C)C)C(=O)N4C3)c2cc1Cl [Compound 4024, tert-butyl (2R,6S,7R,9R,13aS,14aR,16aS,Z)-2-(7-chloro-6-methoxyisoquinolin-1-yloxy)-14a-(1-fluorocyclopropylsulfonylcarbamoyl)-7,9-dimethyl-5,16-dioxo-1,2,3,5,6,7,8,9,10,11,13a,14,14a,15,16,16a-hexadecahydrocyclopropa[e]pyrrolo[1,2-a][1,4]diazacyclopentadecin-6-ylcarbamate] | < 5.46 nM | < 5.46 nM | – | –
11 | CCOc1cnc(O[C@@H]2C[C@H]3C(=O)N[C@]4(C(=O)NS(=O)(=O)C5CC5)C[C@H]4/C=C\CC[C@@H](C)C[C@@H](C)[C@H](NC(=O)OC(C)(C)C(F)(F)F)C(=O)N3C2)c2cccc(Cl)c12 [Compound 4025] | < 5.46 nM | < 5.46 nM | – | –
12 | COc1ccc2c(O[C@@H]3C[C@H]4C(=O)N[C@]5(C(=O)NS(=O)(=O)C6CC6)C[C@H]5/C=C\CC[C@@H](C)C[C@@H](C)[C@H](NC(=O)OC(C)(C)C)C(=O)N4C3)nc(-c3ccc(OC(C)C)cc3)cc2c1 [Compound 4026, tert-butyl (2R,6S,7R,9R,13aS,14aR,16aS,Z)-14a-(cyclopropylsulfonylcarbamoyl)-2-(3-(4-isopropoxyphenyl)-6-methoxyisoquinolin-1-yloxy)-7,9-dimethyl-5,16-dioxo-1,2,3,5,6,7,8,9,10,11,13a,14,14a,15,16,16a-hexadecahydrocyclopropa[e]pyrrolo[1,2-a][1,4]diazacyclopentadecin-6-ylcarbamate] | < 5.46 nM | < 5.46 nM | – | –
13 | COc1ccc2c(O[C@@H]3C[C@H]4C(=O)N[C@]5(C(=O)NS(=O)(=O)C6CC6)C[C@H]5/C=C\CC[C@@H](C)C[C@@H](C)[C@H](NC(=O)OC(C)(C)C(F)(F)F)C(=O)N4C3)nc(-c3ccc(OC(C)C)cc3)cc2c1 [Compound 4027] | – | – | < 5.46 nM | < 5.46 nM
14 | COc1ccc2c(O[C@@H]3C[C@H]4C(=O)N[C@]5(C(=O)NS(=O)(=O)C6(F)CC6)C[C@H]5/C=C\CC[C@@H](C)C[C@@H](C)[C@H](NC(=O)OC(C)(C)C(F)(F)F)C(=O)N4C3)ncc(Cl)c2c1 [Compound 4028] | – | – | < 5.46 nM | < 5.46 nM
15 | COc1ccc2c(O[C@@H]3C[C@H]4C(=O)N[C@]5(C(=O)NS(=O)(=O)C6(F)CC6)C[C@H]5/C=C\CC[C@@H](C)C[C@@H](C)[C@H](NC(=O)c5ccccc5F)C(=O)N4C3)nccc2c1 [Compound 4029] | < 5.46 nM | < 5.46 nM | – | –
16 | C[C@@H]1CC/C=C\[C@@H]2C[C@@]2(C(=O)NS(=O)(=O)C2CC2)NC(=O)[C@@H]2C[C@@H](Oc3ncc(OCC4CC4)c4ccccc34)CN2C(=O)[C@@H](NC(=O)CC(C)(C)C(F)(F)F)[C@H](C)C1 [Compound 4030] | < 5.46 nM | < 5.46 nM | – | –
17 | C[C@@H]1CC/C=C\[C@@H]2C[C@@]2(C(=O)NS(=O)(=O)C2CC2)NC(=O)[C@@H]2C[C@@H](Oc3ncc(OC(F)F)c4c(Cl)cccc34)CN2C(=O)[C@@H](NC(=O)CC(C)(C)C(F)(F)F)[C@H](C)C1 [Compound 4031] | < 5.46 nM | < 5.46 nM | – | –
18 | COc1ccc2c(O[C@@H]3C[C@H]4C(=O)N[C@]5(C(=O)NS(=O)(=O)C6CC6)C[C@H]5/C=C\CC[C@@H](C)C[C@@H](C)[C@H](NC(=O)OC(C)(C)C)C(=O)N4C3)ncnc2c1 [Compound 4032, tert-butyl (2R,6S,7R,9R,13aS,14aR,16aS,Z)-14a-(cyclopropylsulfonylcarbamoyl)-2-(7-methoxyquinazolin-4-yloxy)-7,9-dimethyl-5,16-dioxo-1,2,3,5,6,7,8,9,10,11,13a,14,14a,15,16,16a-hexadecahydrocyclopropa[e]pyrrolo[1,2-a][1,4]diazacyclopentadecin-6-ylcarbamate] | < 5.46 nM | < 5.46 nM | – | –
19 | COc1ccc2c(O[C@@H]3C[C@H]4C(=O)N[C@]5(C(=O)NS(=O)(=O)C6CC6)C[C@H]5/C=C\CC[C@H](C)C[C@@H](C)[C@H](NC(=O)OC(C)(C)C)C(=O)N4C3)ncnc2c1 [Compound 4033, tert-butyl (2R,6S,7R,9S,13aS,14aR,16aS,Z)-14a-(cyclopropylsulfonylcarbamoyl)-2-(7-methoxyquinazolin-4-yloxy)-7,9-dimethyl-5,16-dioxo-1,2,3,5,6,7,8,9,10,11,13a,14,14a,15,16,16a-hexadecahydrocyclopropa[e]pyrrolo[1,2-a][1,4]diazacyclopentadecin-6-ylcarbamate] | < 5.46 nM | < 5.46 nM | – | –
20 | COc1ccc2c(O[C@@H]3C[C@H]4C(=O)N[C@]5(C(=O)NS(=O)(=O)C6CC6)C[C@H]5/C=C\CC[C@@H](C)C[C@@H](C)[C@H](NC(=O)OC(C)(C)C(F)(F)F)C(=O)N4C3)ncnc2c1 [Compound 4034] | – | – | < 5.46 nM | < 5.46 nM
21 | COc1ccc2c(O[C@@H]3C[C@H]4C(=O)N[C@]5(C(=O)NS(=O)(=O)C6(F)CC6)C[C@H]5/C=C\CC[C@@H](C)C[C@@H](C)[C@H](NC(=O)OCC5(C)CC5)C(=O)N4C3)nccc2c1 [Compound 4036] | < 5.46 nM | < 5.46 nM | – | –
22 | COc1ccc2c(O[C@@H]3C[C@H]4C(=O)N[C@]5(C(=O)NS(=O)(=O)C6(F)CC6)C[C@H]5/C=C\CC[C@@H](C)C[C@@H](C)[C@H](NC(=O)OC5CCCCC5)C(=O)N4C3)nccc2c1 [Compound 4037] | < 5.46 nM | < 5.46 nM | – | –
23 | COc1ccc2c(O[C@@H]3C[C@H]4C(=O)N[C@]5(C(=O)NS(=O)(=O)C6(F)CC6)C[C@H]5/C=C\CC[C@@H](C)C[C@@H](C)[C@H](NC(=O)OC5C[C@@H]6C[C@@H]6C5)C(=O)N4C3)nccc2c1 (stereo partly shown) [Compound 4038] | < 5.46 nM | < 5.46 nM | – | –
24 | COc1cc2ccnc(O[C@@H]3C[C@H]4C(=O)N[C@]5(C(=O)NS(=O)(=O)C6(C)CC6)C[C@H]5/C=C\CC[C@@H](C)C[C@@H](C)[C@H](NC(=O)OC(C)(C)C(F)(F)F)C(=O)N4C3)c2cc1F [Compound 4039, 1,1-trifluoro-2-methylpropan-2-yl(2R,6S,7R,9R,13aS,14aR,16aS,Z)-2-(7-fluoro-6-methoxyisoquinolin-1-yloxy)-7,9-dimethyl-14a-(1-methylcyclopropylsulfonylcarbamoyl)-5,16-dioxo-1,2,3,5,6,7,8,9,10,11,13a,14,14a,15,16,16a-hexadecahydrocyclopropa[e]pyrrolo[1,2-a][1,4]diazacyclopentadecin-6-ylcarbamate] | < 5.46 nM | < 5.46 nM | – | –
25 | C[C@@H]1CC/C=C\[C@@H]2C[C@@]2(C(=O)NS(=O)(=O)C2CC2)NC(=O)[C@@H]2C[C@@H](Oc3nccc4ccccc34)CN2C(=O)[C@@H](NC(=O)OC(C)(C)C(F)(F)F)[C@H](C)C1 [Compound 4040] | – | – | < 5.46 nM | < 5.46 nM
26 | CCOc1cnc(O[C@@H]2C[C@H]3C(=O)N[C@]4(C(=O)NS(=O)(=O)C5(C)CC5)C[C@H]4/C=C\CC[C@@H](C)C[C@@H](C)[C@H](NC(=O)OC(C)(C)C(F)(F)F)C(=O)N3C2)c2ccccc12 [Compound 4041] | – | – | < 5.46 nM | < 5.46 nM
